{"source": "patent US6069130A", "about": "“Ketoheterocyclic inhibitors of factor Xa” (COR Therapeutics, Inc., priority 1995, dated 2000)", "key": {"[1]": {"details": "rabbit, in vivo", "source_text": "(§1) Rabbits were anesthetized with I.M. injections of Ketamine, Xylazine, and Acepromazine cocktail. A standardized protocol consisted of insertion of a thrombogenic cotton thread and copper wire apparatus into the abdominal vena cava of the anesthetized rabbit. A non-occlusive thrombus was allowed to develop in the central venous circulation and inhibition of thrombus growth was used as a measure of the antithrombotic activity of the studied compounds. Test agents or control saline were administered through a marginal ear vein catheter. A femoral vein catheter was used for blood sampling prior to and during steady state infusion of test compound. Initiation of thrombus formation begins immediately after advancement of the cotton thread apparatus into the central venous circulation. Test compounds were administered from time=30 min to time=150 min at which the experiment was terminated. The rabbits were euthanized and the thromidus excised by surgical dissection and characterized by weight and histology. Blood samples were analyzed for changes in hematological and coagulation parameters."}, "[2]": {"test": "coagulation parameters (aPTT, PT) in rabbit venous thrombosis model", "format": "in vivo", "details": "for fold increase over baseline PT / fold increase over baseline aPTT: rabbit, steady state, mean ± SD", "source_text": "as §1"}, "[3]": {"system": "thrombus growth in abdominal vena cava", "test": "rabbit deep vein thrombosis model, inhibition of thrombus growth", "format": "in vivo", "details": "for of Thrombosis (inhibition of thrombus growth): rabbit", "source_text": "as §1"}, "[4]": {"details": "highest dose (100 μg/kg+2.57 μg/kg/min)"}}, "data": [{"compound": "NC(N)=NCCCC(N)C(=O)NCC(=O)NC(CCCN=C(N)N)C(=O)c1nccs1", "note": "[H-D-Arg-Gly-Arg-thiazole, (D)-Arg-Gly-Arg-thiazole]", "values": [{"measurement": "effects on hematological parameters as compared to saline controls (in words)", "setting": "[1]", "result": "no significant effects"}, {"measurement": "effect on PT prolongation (in words)", "setting": "[2]; [4]", "result": "no significant effect"}, {"measurement": "effect on aPTT prolongation (in words)", "setting": "[2]; [4]", "result": "no significant effect"}, {"measurement": "fold increase over baseline PT", "setting": "[2]; 50 μg/kg + 1.28 μg/kg/min", "result": "1.00 ± 0.00", "unit": "fold"}, {"measurement": "fold increase over baseline aPTT", "setting": "[2]; 50 μg/kg + 1.28 μg/kg/min", "result": "1.00 ± 0.03", "unit": "fold"}, {"measurement": "fold increase over baseline PT", "setting": "[2]; 75 μg/kg + 1.93 μg/kg/min", "result": "1.00 ± 0.00", "unit": "fold"}, {"measurement": "fold increase over baseline aPTT", "setting": "[2]; 75 μg/kg + 1.93 μg/kg/min", "result": "1.02 ± 0.03", "unit": "fold"}, {"measurement": "fold increase over baseline PT", "setting": "[2]; 100 μg/kg + 2.57 μg/kg/min", "result": "0.83 ± 0.00", "unit": "fold"}, {"measurement": "fold increase over baseline aPTT", "setting": "[2]; 100 μg/kg + 2.57 μg/kg/min", "result": "1.08 ± 0.02", "unit": "fold"}, {"measurement": "antithrombotic efficacy in the rabbit venous thrombosis model (in words)", "setting": "[3]; at the higher doses evaluated", "result": "demonstrated antithrombotic efficacy at the higher doses evaluated"}, {"measurement": "of Thrombosis (inhibition of thrombus growth)", "setting": "[3]; i.v. 50 μg/kg + 1.28 μg/kg/min", "result": -7.84}, {"measurement": "of Thrombosis (inhibition of thrombus growth)", "setting": "[3]; i.v. 75 μg/kg + 1.93 μg/kg/min", "result": 42.955}, {"measurement": "of Thrombosis (inhibition of thrombus growth)", "setting": "[3]; i.v. 100 μg/kg + 2.57 μg/kg/min", "result": 117.72}]}]}
